Where two headings read alike, the source gives them in different places.
What was measured:
LOX IMVI = test: panel of 60 human tumor cell lines, growth inhibition (Melanoma)
HOP-92 = test: panel of 60 human tumor cell lines, growth inhibition (Non-Small Cell Lung Cancer); settings: HOP-92
RXF 393 = test: panel of 60 human tumor cell lines, growth inhibition (Renal Cancer); settings: RXF 393
SK-MEL-2 = test: panel of 60 human tumor cell lines, growth inhibition (Melanoma); settings: SK-MEL-2
HCT-15 = test: panel of 60 human tumor cell lines, growth inhibition (Colon Cancer); settings: HCT-15
SK-OV-3 = test: panel of 60 human tumor cell lines, growth inhibition (Ovarian Cancer); settings: SK-OV-3
CAKI-1 = test: panel of 60 human tumor cell lines, growth inhibition (Renal Cancer); settings: CAKI-1
SK-MEL-5 = test: panel of 60 human tumor cell lines, growth inhibition (Melanoma); settings: 8K-MEL-5
HOP-62 = test: panel of 60 human tumor cell lines, growth inhibition (Non-Small Cell Lung Cancer); settings: HOP-62
MCF7 = test: panel of 60 human tumor cell lines, growth inhibition (Breast Cancer); settings: MCF7
NCI-H226 = test: panel of 60 human tumor cell lines, growth inhibition (Non-Small Cell Lung Cancer); settings: NCI-H226
NCI-H460 = test: as above; settings: NCI-H460
SN12C = test: panel of 60 human tumor cell lines, growth inhibition (Renal Cancer)
CCRF-CEM = test: panel of 60 human tumor cell lines, growth inhibition (Leukemia)
MDA-MB-231/ATCC = test: panel of 60 human tumor cell lines, growth inhibition (Breast Cancer); settings: MDA-MB-231/ATCC
DU-145 = test: panel of 60 human tumor cell lines, growth inhibition (Prostate Cancer); settings: DU-145
MOLT-4 = test: panel of 60 human tumor cell lines, growth inhibition (Leukemia); settings: MOLT-4
HCC-2998 = test: panel of 60 human tumor cell lines, growth inhibition (Colon Cancer); settings: HCC-2998

C=C1C(=O)O[C@H]2[C@H]1CC/C(COC(=O)NCCN1CCCCC1)=C\CC[C@@]1(C)O[C@@H]21 [JVM 2-13]
GI50 (LOX IMVI): 10.2 µM
TGI (LOX IMVI): 23.9 µM
Percent Growth (LOX IMVI; Log10 Concentration −4.0): −84%
Percent Growth (LOX IMVI; Log10 Concentration −5.0): 51%
Percent Growth (LOX IMVI; Log10 Concentration −6.0): 94%
Percent Growth (LOX IMVI; Log10 Concentration −7.0): 99%
Percent Growth (LOX IMVI; Log10 Concentration −8.0): 102%
GI50 (HOP-92): 1.58 µM
TGI (HOP-92): 11.2 µM
Percent Growth (HOP-92; Log10 Concentration −4.0): −83%
Percent Growth (HOP-92; Log10 Concentration −5.0): 4%
Percent Growth (HOP-92; Log10 Concentration −6.0): 61%
Percent Growth (HOP-92; Log10 Concentration −7.0): 76%
Percent Growth (HOP-92; Log10 Concentration −8.0): 82%
GI50 (RXF 393): 2.11 µM
TGI (RXF 393): 8.93 µM
Percent Growth (RXF 393; Log10 Concentration −4.0): −84%
Percent Growth (RXF 393; Log10 Concentration −5.0): −4%
Percent Growth (RXF 393; Log10 Concentration −6.0): 76%
Percent Growth (RXF 393; Log10 Concentration −7.0): 86%
Percent Growth (RXF 393; Log10 Concentration −8.0): 98%
GI50 (SK-MEL-2): 17 µM
TGI (SK-MEL-2): 34.4 µM
Percent Growth (SK-MEL-2; Log10 Concentration −4.0): −76%
Percent Growth (SK-MEL-2; Log10 Concentration −5.0): 88%
Percent Growth (SK-MEL-2; Log10 Concentration −6.0): 113%
Percent Growth (SK-MEL-2; Log10 Concentration −7.0): 113%
Percent Growth (SK-MEL-2; Log10 Concentration −8.0): 103%
GI50 (HCT-15): 3.08 µM
TGI (HCT-15): 13.1 µM
Percent Growth (HCT-15; Log10 Concentration −4.0): −75%
Percent Growth (HCT-15; Log10 Concentration −5.0): 10%
Percent Growth (HCT-15; Log10 Concentration −6.0): 88%
Percent Growth (HCT-15; Log10 Concentration −7.0): 95%
Percent Growth (HCT-15; Log10 Concentration −8.0): 91%
GI50 (SK-OV-3): 21 µM
TGI (SK-OV-3): 45.8 µM
Percent Growth (SK-OV-3; Log10 Concentration −4.0): −50%
Percent Growth (SK-OV-3; Log10 Concentration −5.0): 97%
Percent Growth (SK-OV-3; Log10 Concentration −6.0): 97%
Percent Growth (SK-OV-3; Log10 Concentration −7.0): 103%
Percent Growth (SK-OV-3; Log10 Concentration −8.0): 92%
GI50 (CAKI-1): 3.43 µM
TGI (CAKI-1): 15.7 µM
Percent Growth (CAKI-1; Log10 Concentration −4.0): −98%
Percent Growth (CAKI-1; Log10 Concentration −5.0): 24%
Percent Growth (CAKI-1; Log10 Concentration −6.0): 80%
Percent Growth (CAKI-1; Log10 Concentration −7.0): 92%
Percent Growth (CAKI-1; Log10 Concentration −8.0): 89%
GI50 (SK-MEL-5): 15.8 µM
TGI (SK-MEL-5): 30.4 µM
Percent Growth (SK-MEL-5; Log10 Concentration −4.0): −91%
Percent Growth (SK-MEL-5; Log10 Concentration −5.0): 85%
Percent Growth (SK-MEL-5; Log10 Concentration −6.0): 99%
Percent Growth (SK-MEL-5; Log10 Concentration −7.0): 101%
Percent Growth (SK-MEL-5; Log10 Concentration −8.0): 100%
GI50 (HOP-62): 17 µM
Percent Growth (HOP-62; Log10 Concentration −4.0): −77%
Percent Growth (HOP-62; Log10 Concentration −5.0): 88%
Percent Growth (HOP-62; Log10 Concentration −6.0): 91%
Percent Growth (HOP-62; Log10 Concentration −7.0): 95%
Percent Growth (HOP-62; Log10 Concentration −8.0): 86%
GI50 (MCF7): 2.58 µM
TGI (MCF7): 11.4 µM
Percent Growth (MCF7; Log10 Concentration −4.0): −64%
Percent Growth (MCF7; Log10 Concentration −5.0): 4%
Percent Growth (MCF7; Log10 Concentration −6.0): 82%
Percent Growth (MCF7; Log10 Concentration −7.0): 91%
Percent Growth (MCF7; Log10 Concentration −8.0): 87%
GI50 (HL-60(TB)): 3.5 µM
TGI (HL-60(TB)): 11.3 µM
Percent Growth (HL-60(TB); Log10 Concentration −4.0): −44%
Percent Growth (HL-60(TB); Log10 Concentration −5.0): 2%
Percent Growth (HL-60(TB); Log10 Concentration −6.0): 107%
Percent Growth (HL-60(TB); Log10 Concentration −7.0): 106%
Percent Growth (HL-60(TB); Log10 Concentration −8.0): 90%
CC50 (HL-60(TB); read-out: LC50): > 100 µM
GI50 (NCI-H226): 10.5 µM
TGI (NCI-H226): 40.2 µM
Percent Growth (NCI-H226; Log10 Concentration −4.0): −3%
Percent Growth (NCI-H226; Log10 Concentration −5.0): 52%
Percent Growth (NCI-H226; Log10 Concentration −6.0): 93%
Percent Growth (NCI-H226; Log10 Concentration −7.0): 96%
Percent Growth (NCI-H226; Log10 Concentration −8.0): 99%
TGI (NCI-H460): 36.5 µM
Percent Growth (NCI-H460; Log10 Concentration −4.0): −66%
Percent Growth (NCI-H460; Log10 Concentration −5.0): 85%
Percent Growth (NCI-H460; Log10 Concentration −6.0): 100%
Percent Growth (NCI-H460; Log10 Concentration −7.0): 100%
Percent Growth (NCI-H460; Log10 Concentration −8.0): 102%
GI50 (SN12C): 3.75 µM
TGI (SN12C): 16.2 µM
Percent Growth (SN12C; Log10 Concentration −4.0): −71%
Percent Growth (SN12C; Log10 Concentration −5.0): 19%
Percent Growth (SN12C; Log10 Concentration −6.0): 92%
Percent Growth (SN12C; Log10 Concentration −7.0): 94%
Percent Growth (SN12C; Log10 Concentration −8.0): 97%
GI50 (CCRF-CEM): 3.03 µM
TGI (CCRF-CEM): 12.1 µM
Percent Growth (CCRF-CEM; Log10 Concentration −4.0): −41%
Percent Growth (CCRF-CEM; Log10 Concentration −5.0): 4%
Percent Growth (CCRF-CEM; Log10 Concentration −6.0): 93%
Percent Growth (CCRF-CEM; Log10 Concentration −7.0): 109%
Percent Growth (CCRF-CEM; Log10 Concentration −8.0): 104%
GI50 (MDA-MB-231/ATCC): 5.69 µM
TGI (MDA-MB-231/ATCC): 20.8 µM
Percent Growth (MDA-MB-231/ATCC; Log10 Concentration −4.0): −79%
Percent Growth (MDA-MB-231/ATCC; Log10 Concentration −5.0): 37%
Percent Growth (MDA-MB-231/ATCC; Log10 Concentration −6.0): 91%
Percent Growth (MDA-MB-231/ATCC; Log10 Concentration −7.0): 99%
Percent Growth (MDA-MB-231/ATCC; Log10 Concentration −8.0): 107%
GI50 (DU-145): 4.89 µM
TGI (DU-145): 16.6 µM
Percent Growth (DU-145; Log10 Concentration −4.0): −97%
Percent Growth (DU-145; Log10 Concentration −5.0): 27%
Percent Growth (DU-145; Log10 Concentration −6.0): 101%
Percent Growth (DU-145; Log10 Concentration −7.0): 108%
Percent Growth (DU-145; Log10 Concentration −8.0): 110%
TGI (MOLT-4): 13.3 µM
Percent Growth (MOLT-4; Log10 Concentration −4.0): −49%
Percent Growth (MOLT-4; Log10 Concentration −5.0): 7%
Percent Growth (MOLT-4; Log10 Concentration −6.0): 95%
Percent Growth (MOLT-4; Log10 Concentration −7.0): 116%
Percent Growth (MOLT-4; Log10 Concentration −8.0): 100%
GI50 (HCC-2998): 18.5 µM
TGI (HCC-2998): 36 µM
Percent Growth (HCC-2998; Log10 Concentration −4.0): −77%
Percent Growth (HCC-2998; Log10 Concentration −5.0): 96%
Percent Growth (HCC-2998; Log10 Concentration −6.0): 104%
Percent Growth (HCC-2998; Log10 Concentration −7.0): 105%
Percent Growth (HCC-2998; Log10 Concentration −8.0): 99%

Source: patent US9469650B2, “Melampomagnolide B derivatives” (BOARD OF TRUSTEES OF THE UNIVERSITY OF ARKANSAS, priority 2013, dated 2016)
